System: cardiac β1-AR (position 389 genotype)
Type: in vivo, human
Conditions: Gly389/Arg389 heterozygous heart failure patients; difference before vs after >6 months on a stable dose
Method: The study was approved by the University of Cincinnati Institutional Review Board and the patients gave informed consent. […] LVEF was determined by radionuclide ventriculography before initiation of drug treatment and after a maintenance period of >6 months on a stable dose. The change in LVEF was reported as the difference between values before and after drug treatment.

COc1ccccc1OCCNCC(O)COc1cccc2[nH]c3ccccc3c12 (stereo not shown) [carvedilol]
improvement in LVEF: improvement similar to that of Arg389-homozygous patients

From patent US7449292B2, “Methods for predicting relative efficacy of a beta blocker therapy based on a B1-adrenergic receptor polymorphism” (University of Cincinnati, priority 2003, dated 2008)
